Test results taken from patent publication US20080081796A1, “TREATMENT OF MUCOSITIS” (priority 2002, published 2008).

Tested on: oral mucositis induced by acute radiation
Assay: oral mucositis induced by acute radiation in an animal model (Animal Study and Animal Study II)
Assay type: in vivo, Golden Syrian hamsters
Conditions: for severity of oral mucositis (average oral mucositis scores, FIG. 1): topical TID 0.25 ml to left cheek pouch, 40 Gy radiation on day 0, versus water control
Excerpt: The objective of this study was to evaluate the effect of the nucleoside derivative, 5′-adenosine-diphosphate ribose, when administered topically, on the frequency, severity and duration of oral mucositis induced by acute radiation in an animal model.
The animals in the study ([…] Golden Syrian hamsters, Charles River Lab., ages 5-6 weeks, approximately 90 g average body weight) were randomly and prospectively divided into three groups of eight animals each. The particular test material to be applied to the animal mucosa during the study essentially defined each group. The test materials were water (Group 1 control), ADP-ribose 100 μg/ml in water (Group 2) and ADP-ribose 500 μg/ml in water (Group 3).
Mucositis was induced in the animals with a standardized acute radiation protocol. A single dose of radiation (40 Gy/dose) was administered to each animal on day 0. Irradiation targeted the left buccal pouch mucosa at a rate of 121.5 cGy/minute. The left buccal pouch was everted, fixed and isolated using a lead shield. Prior to and following radiation on day 0, each animal was dosed with their respective test materials in the manner described below. Also, immediately prior to radiation, the buccal mucosa was everted and any excess test material solution was wiped away using a clean tissue or cotton swab.
The respective test materials were then applied topically TID to the irradiated mucosa of each animal on day 1 to day 20 of the study. To accomplish this, a tuberculin syringe without a needle, containing 0.25 ml of the test material, was inserted into the base of the left cheek pouch and the test material deposited accordingly. This was done TID (first between 8-9:00 am; second between […] and 1:00 pm; third between 4-6:00 pm). Any developing mucositis was evaluated and scored on alternate days from day 6-28. Each animal was also weighed and its survival recorded on day 1 to day 28.
During the study, each animal was tested for mucositis scores, weight change and survival. For the evaluation of mucositis, the animals were anesthetized with inhalation anesthetics, and the left pouch everted. The developing mucositis was scored visually by comparison to a validated photographic scale, ranging from 0 for normal, to 5 for severe ulceration (clinical scoring). In descriptive terms, this scale is defined in the following table:
A mucositis score of 1-2 represents a mild stage of the disease. A score of 3-5 indicates moderate to severe mucositis. Following visual scoring, a photograph was taken of each animal's mucosa using a standardized technique. At the conclusion of the experiment, all film was developed and the photographs randomly numbered. At least two independent trained observers graded the photographs in blinded fashion using the above-described scale (blinded scoring). Results of the mucositis scores are graphically illustrated in FIG. 1.
The animal study described in Example 2 was then repeated with an identical protocol but with modified ADP-ribose doses. The groups in this study were treated with water (control), ADP-ribose at 100 μg/ml in water (Compound F), ADP-ribose at 45 μg/ml in water (Compound G), and ADP-ribose at 15 μg/ml in water (Compound H). […] Animals in the control group had mucositis scores ≧3 for approximately 10 days, whereas the ADP-ribose group had scores of approximately 3 for only 4 days.

5′-adenosine-diphosphate ribose [ADP-ribose]
severity of oral mucositis (average oral mucositis scores, FIG. 1) (Example 3, ADP-ribose at 100 μg/ml in water (Compound D group)): decreased the severity of oral mucositis | severity of oral mucositis (average oral mucositis scores, FIG. 1) (Example 3, ADP-ribose at 500 μg/ml (Compound E group)): decreased the severity of oral mucositis | effect on oral mucositis at 100 μg/ml compared with 500 μg/ml (Example 3, FIG. 1, comparison of the two ADP-ribose concentrations): superior to that of ADP-ribose at 500 μg/ml | healing of oral mucositis (Example 4, Animal Study II, FIG. 2, ADP-ribose at a 45 μg/ml dose (Compound G)): maximum healing of oral mucositis that was statistically significant | time with mucositis scores of approximately 3 (Example 4, Animal Study II, FIG. 2, ADP-ribose group, control group had scores ≧3 for approximately 10 days): 4 days | healing of ulcers associated with mucositis (mucositis score ≧3) relative to the control (Example 4, Animal Study II, FIG. 2, ADP-ribose treatment groups (100, 45, 15 μg/ml in water)): healed faster
